Assay results: US8541380B2, “C-aryl glucoside SGLT2 inhibitors and pharmaceutical compositions comprising same” (Green Cross Corporation, priority 2009, dated 2013)

molecular target: human SGLT2 (Homo sapiens (Human), UniProt P31639); assay: hSGLT2 inhibitory activity, sodium-dependent 14C-AMG glucose transport assay in CHO cells expressing hSGLT2; type: cell-based; details: 14C-AMG uptake, CHO cells expressing hSGLT2, 37° C. for 2 h
Text: Human SGLT2 (hSGLT2) gene was amplified by PCR from cDNA-Human Adult Normal Tissue Kidney (Invitrogen, Carlsbad, Calif.). The hSGLT2 sequence was cloned into pcDNA3.1(+) for mammalian expression and were stably transfected into Chinese hamster ovary (CHO) cells. SGLT2-expressing clones were selected based on resistance to G418 antibiotic (Geneticin®, Invitrogen, Carlsbad, Calif.) and activity in the ^14C-α-methyl-D-glucopyranoside (^14C-AMG) uptake assay.
For sodium-dependent glucose transport assay, cells expressing hSGLT2 were seeded into a 96-well culture plate at a density of 5×10^4 cells/well in RPMI medium 1640 containing 10% fetal bovine serum. The cells were used 1 day after plating. They were incubated in pretreatment buffer (10 mM HEPES, 5 mM Tris, 140 mM choline chloride, 2 mM KCl, 1 mM CaCl2, and 1 mM MgCl2, pH 7.4) at 37° C. for 10 min. They were then incubated in uptake buffer (10 mM HEPES, 5 mM Tris, 140 mM NaCl, 2 mM KCl, 1 mM CaCl2, 1 mM MgCl2, and 1 mM ^14C-nonlabeled AMG pH 7.4) containing ^14C-labeled (8 uM) and inhibitor or dimethyl sulfoxide (DMSO) vehicle at 37° C. for 2 h. Cells were washed twice with washing buffer (pretreatment buffer containing 10 mM AMG at room temperature) and then the radioactivity was measured using a liquid scintillation counter.

Sequence of human SGLT2 (P31639 whole entry): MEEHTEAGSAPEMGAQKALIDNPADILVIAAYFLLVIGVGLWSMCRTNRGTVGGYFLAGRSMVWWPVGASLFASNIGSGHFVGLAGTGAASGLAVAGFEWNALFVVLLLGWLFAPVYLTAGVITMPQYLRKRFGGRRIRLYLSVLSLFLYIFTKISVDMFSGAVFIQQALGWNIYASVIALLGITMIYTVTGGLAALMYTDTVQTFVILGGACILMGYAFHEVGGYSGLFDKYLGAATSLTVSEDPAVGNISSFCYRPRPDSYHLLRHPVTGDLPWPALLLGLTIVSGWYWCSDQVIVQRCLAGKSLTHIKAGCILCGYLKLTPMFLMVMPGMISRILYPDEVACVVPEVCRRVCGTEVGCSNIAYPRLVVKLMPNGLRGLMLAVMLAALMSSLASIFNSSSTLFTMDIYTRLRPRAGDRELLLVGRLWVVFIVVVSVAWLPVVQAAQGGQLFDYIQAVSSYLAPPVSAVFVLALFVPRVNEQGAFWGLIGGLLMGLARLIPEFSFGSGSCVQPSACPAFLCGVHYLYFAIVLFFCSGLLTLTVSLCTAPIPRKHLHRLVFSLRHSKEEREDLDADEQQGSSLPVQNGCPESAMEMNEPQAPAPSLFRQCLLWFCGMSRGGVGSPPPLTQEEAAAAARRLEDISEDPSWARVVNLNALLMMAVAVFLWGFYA

Row | IC50 | Compound
1 | 0.712 µM | OC[C@H]1O[C@@H](c2ccc(Cl)c(Cc3nnc(-c4sccc4Cl)s3)c2)[C@H](O)[C@@H](O)[C@@H]1O [Example 9, (2S,3R,4R,5S,6R)-2-(4-Chloro-3-((5-(3-chlorothiophen-2-yl)-1,3,4-thiadiazol-2-yl)methyl)phenyl)-6-(hydroxymethyl)tetrahydro-2H-pyran-3,4,5-triol]
2 | 0.0144 µM | OC[C@H]1O[C@@H](c2ccc(Cl)c(Cc3nnc(-c4cccs4)s3)c2)[C@H](O)[C@@H](O)[C@@H]1O [Example 5, (2S,3R,4R,5S,6R)-2-(4-Chloro-3-((5-(thiophen-2-yl)-1,3,4-thiadiazol-2-yl)methyl)phenyl)-6-(hydroxymethyl)tetrahydro-2H-pyran-3,4,5-triol]
3 | 0.0974 µM | Cc1ccc(-c2nnc(Cc3cc([C@@H]4O[C@H](CO)[C@@H](O)[C@H](O)[C@H]4O)ccc3Cl)s2)cn1 [Example 16, (2S,3R,4R,5S,6R)-2-(4-Chloro-3-((5-(6-methylpyridin-3-yl)-1,3,4-thiadiazol-2-yl)methyl)phenyl)-6-(hydroxymethyl)-tetrahydro-2H-pyran-3,4,5-triol]
4 | 0.0177 µM | OC[C@H]1O[C@@H](c2ccc(Cl)c(Cc3nnc(-c4ccoc4)s3)c2)[C@H](O)[C@@H](O)[C@@H]1O [Example 4, (2S,3R,4R,5S,6R)-2-(4-Chloro-3-((5-(furan-3-yl)-1,3,4-thiadiazol-2-yl)methyl)phenyl)-6-(hydroxymethyl)tetrahydro-2H-pyran-3,4,5-triol]
5 | 0.257 µM | Cc1cc(-c2nnc(Cc3cc([C@@H]4O[C@H](CO)[C@@H](O)[C@H](O)[C@H]4O)ccc3Cl)s2)no1 [Example 12, (2S,3R,4R,5S,6R)-2-(4-Chloro-3-((5-(5-methylisoxazol-3-yl)-1,3,4-thiadiazol-2-yl)methyl)phenyl)-6-(hydroxymethyl)tetrahydro-2H-pyran-3,4,5-triol]
6 | 0.00351 µM | OC[C@H]1O[C@@H](c2ccc(Cl)c(Cc3nnc(-c4ccsc4)s3)c2)[C@H](O)[C@@H](O)[C@@H]1O [Example 10, (2S,3R,4R,5S,6R)-2-(4-Chloro-3-((5-(thiophen-3-yl)-1,3,4-thiadiazol-2-yl)methyl)phenyl)-6-(hydroxymethyl)tetrahydro-2H-pyran-3,4,5-triol]
7 | 0.0364 µM | Cc1cc(-c2nnc(Cc3cc([C@@H]4O[C@H](CO)[C@@H](O)[C@H](O)[C@H]4O)ccc3Cl)s2)ccn1 [Example 45, (2S,3R,4R,5S,6R)-2-(4-Chloro-3-((5-(2-methylpyridin-4-yl)-1,3,4-thiadiazol-2-yl)methyl)phenyl)-6-(hydroxymethyl)-tetrahydro-2H-pyran-3,4,5-triol]

Second part, the compound before the results:

Row | Compound | IC50
8 | OC[C@H]1O[C@@H](c2cc(Cc3nnc(-c4ccco4)s3)c(Cl)cc2Cl)[C@H](O)[C@@H](O)[C@@H]1O [Example 96, (2S,3R,4R,5S,6R)-2-(2,4-Dichloro-5-((5-(furan-2-yl)-1,3,4-thiadiazol-2-yl)methyl)phenyl)-6-(hydroxymethyl)-tetrahydro-2H-pyran-3,4,5-triol] | 0.0176 µM
9 | CCSc1ccc(Cc2cc([C@@H]3O[C@H](CO)[C@@H](O)[C@H](O)[C@H]3O)ccc2Cl)nn1 [Example 80, (2S,3R,4R,5S,6R)-2-(4-Chloro-3-((6-(ethylthio)pyridazin-3-yl)methyl)phenyl)-6-(hydroxymethyl)-tetrahydro-2H-pyran-3,4,5-triol] | 0.0713 µM
10 | CCCCc1nnc(Cc2cc([C@@H]3O[C@H](CO)[C@@H](O)[C@H](O)[C@H]3O)ccc2Cl)s1 [Example 32, (2S,3R,4R,5S,6R)-2-(3-((5-Butyl-1,3,4-thiadiazol-2-yl)methyl)-4-chlorophenyl)-6-(hydroxymethyl)-tetrahydro-2H-pyran-3,4,5-triol] | 0.379 µM
11 | OC[C@H]1O[C@@H](c2ccc(Cl)c(Cc3nnc(-c4ccc(-c5ccccc5)o4)s3)c2)[C@H](O)[C@@H](O)[C@@H]1O [Example 37, (2S,3R,4R,5S,6R)-2-(4-Chloro-3-((5-(5-phenylfuran-2-yl)-1,3,4-thiadiazol-2-yl)methyl)phenyl)-6-(hydroxymethyl)-tetrahydro-2H-pyran-3,4,5-triol] | 0.0106 µM
12 | OC[C@H]1O[C@@H](c2ccc(Cl)c(Cc3nncc(-c4ccccc4)n3)c2)[C@H](O)[C@@H](O)[C@@H]1O [Example 90, (2S,3R,4R,5S,6R)-2-(4-Chloro-3-((5-phenyl-1,2,4-triazin-3-yl)methyl)phenyl)-6-(hydroxymethyl)tetrahydro-2H-pyran-3,4,5-triol] | 0.402 µM
13 | OC[C@H]1O[C@@H](c2ccc(Cl)c(Cc3ccc(OC4CCCCC4)nn3)c2)[C@H](O)[C@@H](O)[C@@H]1O [Example 59, (2S,3R,4R,5S,6R)-2-(4-Chloro-3-((6-(cyclohexyloxy)pyridazin-3-yl)methyl)phenyl)-6-(hydroxymethyl)-tetrahydro-2H-pyran-3,4,5-triol] | 0.111 µM
14 | OC[C@H]1O[C@@H](c2ccc(Cl)c(Cc3nnc(-c4cc5ccccc5o4)s3)c2)[C@H](O)[C@@H](O)[C@@H]1O [Example 30, (2S,3R,4R,5S,6R)-2-(3-((5-(Benzofuran-2-yl)-1,3,4-thiadiazol-2-yl)methyl)-4-chlorophenyl)-6-(hydroxymethyl)-tetrahydro-2H-pyran-3,4,5-triol] | 0.249 µM
15 | CCCc1ccc(Cc2cc([C@@H]3O[C@H](CO)[C@@H](O)[C@H](O)[C@H]3O)ccc2Cl)nn1 [Example 74, (2S,3R,4R,5S,6R)-2-(4-Chloro-3-((6-propylpyridazin-3-yl)methyl)phenyl)-6-(hydroxymethyl)-tetrahydro-2H-pyran-3,4,5-triol] | 0.237 µM
16 | CSc1nnc(Cc2cc([C@@H]3O[C@H](CO)[C@@H](O)[C@H](O)[C@H]3O)ccc2Cl)cc1C [Example 82, (2S,3R,4R,5S,6R)-2-(4-Chloro-3-((5-methyl-6-(methylthio)pyridazin-3-yl)methyl)phenyl)-6-(hydroxymethyl)tetrahydro-2H-pyran-3,4,5-triol] | 1.52 µM
17 | OC[C@H]1O[C@@H](c2ccc(Cl)c(Cc3nccnn3)c2)[C@H](O)[C@@H](O)[C@@H]1O [Example 89, (2S,3R,4R,5S,6R)-2-(3-((1,2,4-triazin-3-yl)methyl)-4-chlorophenyl)-6-(hydroxymethyl)tetrahydro-2H-pyran-3,4,5-triol] | 0.261 µM
18 | OC[C@H]1O[C@@H](c2ccc(Cl)c(Cc3nnc(-c4cc5ccccc5s4)s3)c2)[C@H](O)[C@@H](O)[C@@H]1O [Example 6, (2S,3R,4R,5S,6R)-2-(3-((5-(Benzo[b]thiophen-2-yl)-1,3,4-thiadiazol-2-yl)methyl)-4-chlorophenyl)-6-(hydroxymethyl)-tetrahydro-2H-pyran-3,4,5-triol] | 0.0445 µM
19 | Cc1ccc(Cc2cc([C@@H]3O[C@H](CO)[C@@H](O)[C@H](O)[C@H]3O)ccc2Cl)nn1 [Example 73, (2S,3R,4R,5S,6R)-2-(4-Chloro-3-((6-methylpyridazin-3-yl)methyl)phenyl)-6-(hydroxymethyl)-tetrahydro-2H-pyran-3,4,5-triol] | 0.293 µM
20 | OC[C@H]1O[C@@H](c2ccc(Cl)c(Cc3nnc4ccccc4n3)c2)[C@H](O)[C@@H](O)[C@@H]1O [Example 88, (2S,3R,4R,5S,6R)-2-(3-(Benzo[e][1,2,4]triazin-3-ylmethyl)-4-chlorophenyl)-6-(hydroxymethyl)tetrahydro-2H-pyran-3,4,5-triol] | 0.491 µM
